# Source: patent EP0754455A1, “PHARMACEUTICAL COMPOSITIONS BASED ON AMINOMETHYLINDOLES AND THEIR THERAPEUTICAL APPLICATION AS NEUROPROTECTORS IN PARKINSON AND ALZHEIMER DISEASES” (CONSEJO SUPERIOR INVESTIGACIONES CIENTIFICAS (CSIC), priority 1995, dated 1996)
# Assays:
# MPTP neurotoxin = assay: Protection against the neurotoxicity of MPTP (striatal DA and DOPAC levels); format: in vivo, mice of the C57/BL species; details: striate, FA-73 3 mg/Kg i.p. 2 h before MPTP HCl 30 mg/Kg i.p., MPTP repeated on day 2, 24 h after last MPTP
# Protocol: Two hours later they were administered MPTP HCl (30 mg/Kg i.p.) and this dose was repeated on the second day. Twenty four hours after the last injection of MPTP the animals were sacrificed. The brains were dissected and determinations made of the dopamine (DA) and 3,4-dihydroxyphenylacetic acid (DOPAC) levels in the striate.
# dopamine carrier = molecular target: T1, dopamine carrier (Homo sapiens, UniProt Q01959); assay: Dopamine carrier inhibition in purified synaptosomes of human caudate; format: biochemical; details: human caudate synaptosomes, dopamine (DA) 0.1 µM; read-out: IC50(max)
# T1 construct: This assay was carried out in purified synaptosomes of human caudate; from tissue; host or cells: post-mortem human caudate, purified synaptosomes
# Protocol: This assay was carried out in purified synaptosomes of human caudate obtained using the same method as described by Rodríguez et al. 1987 Biochem Pharmac 36, 974-976.
# The studies were carried out with the same inhibitors used in the rat tissue. The dopamine (DA) concentration was 0.1 µM, a value chosen from the kinetic constants obtained.
# T1 sequence (Q01959 whole entry): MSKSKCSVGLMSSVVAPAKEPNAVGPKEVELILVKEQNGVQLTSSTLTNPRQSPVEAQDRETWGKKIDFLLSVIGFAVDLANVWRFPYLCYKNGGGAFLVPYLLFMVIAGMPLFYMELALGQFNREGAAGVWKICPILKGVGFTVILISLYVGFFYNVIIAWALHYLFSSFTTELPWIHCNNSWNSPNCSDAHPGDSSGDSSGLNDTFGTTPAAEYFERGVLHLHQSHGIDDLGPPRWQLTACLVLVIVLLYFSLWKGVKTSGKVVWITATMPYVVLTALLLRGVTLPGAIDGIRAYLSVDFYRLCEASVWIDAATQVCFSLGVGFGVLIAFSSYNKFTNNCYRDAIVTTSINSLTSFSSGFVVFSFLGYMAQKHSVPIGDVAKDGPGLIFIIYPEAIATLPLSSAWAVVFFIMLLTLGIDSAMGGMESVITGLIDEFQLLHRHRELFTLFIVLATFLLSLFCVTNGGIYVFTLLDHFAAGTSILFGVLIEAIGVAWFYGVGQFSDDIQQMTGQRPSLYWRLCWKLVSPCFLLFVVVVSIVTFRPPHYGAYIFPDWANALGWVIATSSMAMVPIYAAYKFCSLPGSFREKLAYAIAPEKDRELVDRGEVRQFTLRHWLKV
smiles,measurement,setting,value
C#CCNCc1cc2cc(OCc3ccccc3)ccc2[nH]1 [FA-73],DOPAC,"MPTP neurotoxin; control 0.98, MPTP alone 0.54",0.93 ± 0.023 µg/g dry tissue
same,Dopamine (DA),"MPTP neurotoxin; control 10.85, MPTP alone 3.13",10.48 ± 0.085 µg/g dry tissue
same,IC50,dopamine carrier,360 nM
